Laboratory results taken from PubChem BioAssay (NCI).
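Where inhibition never reached the appropriate level, the endpoint shown equals the highest concentration tested. Otherwise, values were interpolated linearly from a five-concentration, 48-hour dose response in 96-well plates. TGI: total growth inhibition.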

Tests used:
Experiment in all cases: NCI anticancer screen, dose series, 48 h
ACHN renal = test system: ACHN renal
EKVX NSCLC = test system: EKVX NSCLC
HL-60(TB) leukemia = test system: HL-60(TB) leukemia
HOP-62 NSCLC = test system: HOP-62 NSCLC
IGROV1 ovarian = test system: IGROV1 ovarian
LOX IMVI melanoma = test system: LOX IMVI melanoma
MCF7 breast = test system: MCF7 breast
MOLT-4 leukemia = test system: MOLT-4 leukemia
OVCAR-3 ovarian = test system: OVCAR-3 ovarian
OVCAR-4 ovarian = test system: OVCAR-4 ovarian
SF-268 CNS = test system: SF-268 CNS
SF-295 CNS = test system: SF-295 CNS
SK-MEL-28 melanoma = test system: SK-MEL-28 melanoma
SN12C renal = test system: SN12C renal
SNB-19 CNS = test system: SNB-19 CNS
SW-620 colon = test system: SW-620 colon
U251 CNS = test system: U251 CNS
A498 renal = test system: A498 renal

| Structure (SMILES) | TGI (ACHN renal) [µM] | TGI (EKVX NSCLC) [µM] | TGI (HL-60(TB) leukemia) [µM] | TGI (HOP-62 NSCLC) [µM] | TGI (IGROV1 ovarian) [µM] | TGI (LOX IMVI melanoma) [µM] | TGI (MCF7 breast) [µM] | TGI (MOLT-4 leukemia) [µM] | TGI (OVCAR-3 ovarian) [µM] | TGI (OVCAR-4 ovarian) [µM] | TGI (SF-268 CNS) [µM] | TGI (SF-295 CNS) [µM] | TGI (SK-MEL-28 melanoma) [µM] | TGI (SN12C renal) [µM] | TGI (SNB-19 CNS) [µM] | TGI (SW-620 colon) [µM] | TGI (U251 CNS) [µM] | TGI (A498 renal) [µM] |
| --- | --- | --- | --- | --- | --- | --- | --- | --- | --- | --- | --- | --- | --- | --- | --- | --- | --- | --- |
| COC(=O)c1ccc(/C=N/c2cc(C)nn2-c2ccccc2)cc1 | > 100 | > 100 | > 100 | > 100 | > 100 | > 100 | > 100 | > 100 | 38.7 | > 100 | > 100 | > 100 | > 100 | > 100 | > 100 | > 100 | > 100 |  |
| COc1ccccc1OCc1nnc(SCC(=O)O)n1-c1ccccc1 | > 100 | > 100 | > 100 | > 100 | > 100 | > 100 |  | > 100 | > 100 | > 100 | > 100 | > 100 | > 100 | > 100 |  |  | > 100 | > 100 |
| O=C(Cc1ccccc1)NN1C(=O)C(Cl)C1c1cc(Br)cc(Br)c1O (stereo unspecified) | > 100 | 68.1 | 10.1 | 54 | 58.9 | 40 |  | 13.2 | 10.7 | 80.4 | 43.3 | 98.7 | 35.3 | > 100 | 38.9 | 30.5 | 31.4 |  |
| C/C(CC(=O)Nc1ccc(C)cc1)=N\NC(N)=S | > 100 | > 100 | > 100 | > 100 | > 100 | > 100 |  | > 100 | > 100 |  | > 100 | > 100 | > 100 |  |  | > 100 | > 100 | > 100 |
| CC1=CC(=O)c2cccc(O)c2C1=O | 3.17 | 8.68 | 9.13 | 30.9 | 26 | 8.6 |  | > 28.3 | 2.96 | 3.39 | 14.6 | 27.7 | 7.81 | 5.11 | 17.4 | 4.08 | 30.2 | 33.5 |
| CN1C(=O)NC2(O)c3ccccc3C(=O)C12O (stereo unspecified) |  | > 100 | > 100 |  | > 100 | > 100 |  | > 100 | > 100 | > 100 | > 100 | > 100 | > 100 |  | > 100 | > 100 | > 100 |  |
| Clc1ccc(OCc2nnc(CCCCCCCCc3nnc(COc4ccc(Cl)cc4)o3)o2)cc1 | > 100 | > 100 |  |  |  |  | > 100 | > 100 | > 100 | > 100 | > 100 | > 100 | > 100 | > 100 | > 100 | > 100 | > 100 | > 100 |
